Molecular target: T1, Human plasma kallikrein (Homo sapiens, UniProt P03952)
T1 construct: yields a heavy chain (371 amino acids) and a light chain (248 amino acids); purchased Enzyme Research Laboratories
Experiment: Kallikrein Assay (fluorogenic substrate hydrolysis, AFC release)
Type: biochemical
Conditions: purified Human plasma kallikrein 0.5 nM; substrate Acetyl-K—P—R-AFC 100 mM; 50 mM HEPES pH 7.4
Protocol: The effectiveness of a compound of the present invention as an inhibitor of Kallikrein can be determined using a relevant purified serine protease, and an appropriate synthetic substrate. The rate of hydrolysis of the chromogenic or fluorogenic substrate by the relevant serine protease was measured both in the absence and presence of compounds of the present invention. Assays were conducted at room temperature or at 37° C. […] A decrease in the rate of fluorescence change in the presence of inhibitor is indicative of enzyme inhibition. Such methods are known to one skilled in the art. The results of this assay are expressed as the half-maximal inhibitory concentrations (IC50), or the inhibitory constant, Ki.
Kallikrein determinations were made in 50 mM HEPES buffer at pH 7.4 containing 150 mM NaCl, 5 mM CaCl2), and 0.1% PEG 8000 (polyethylene glycol; Fisher Scientific). Determinations were made using purified Human plasma kallikrein at a final concentration of 0.5 nM (Enzyme Research Laboratories) and the synthetic substrate, Acetyl-K—P—R-AFC (Sigma #C6608) at a concentration of […].
Activity assays were performed by diluting a stock solution of substrate at least tenfold to a final concentration ≤0.2 Km into a solution containing enzyme or enzyme equilibrated with inhibitor. Times required to achieve equilibration between enzyme and inhibitor were determined in control experiments. The reactions were performed under linear progress curve conditions and fluorescence increase measured at 405 Ex/510 Em nm. Values were converted to percent inhibition of the control reaction (after subtracting 100% Inhibition value). IC50 was determined by inflection point from a four parameter logistic curve fit. Ki was calculated using the Cheng Prusoff equation, Ki=IC50/(1+([S]/Km)).

T1 sequence (P03952 391-638 limits assumed): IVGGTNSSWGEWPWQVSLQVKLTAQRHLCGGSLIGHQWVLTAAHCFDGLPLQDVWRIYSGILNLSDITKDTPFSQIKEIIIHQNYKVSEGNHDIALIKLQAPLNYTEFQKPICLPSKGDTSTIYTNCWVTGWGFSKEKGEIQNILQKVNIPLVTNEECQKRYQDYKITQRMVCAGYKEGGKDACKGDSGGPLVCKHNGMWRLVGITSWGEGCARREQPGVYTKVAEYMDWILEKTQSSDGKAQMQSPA
T1 sequence (P03952 20-390 partner limits assumed): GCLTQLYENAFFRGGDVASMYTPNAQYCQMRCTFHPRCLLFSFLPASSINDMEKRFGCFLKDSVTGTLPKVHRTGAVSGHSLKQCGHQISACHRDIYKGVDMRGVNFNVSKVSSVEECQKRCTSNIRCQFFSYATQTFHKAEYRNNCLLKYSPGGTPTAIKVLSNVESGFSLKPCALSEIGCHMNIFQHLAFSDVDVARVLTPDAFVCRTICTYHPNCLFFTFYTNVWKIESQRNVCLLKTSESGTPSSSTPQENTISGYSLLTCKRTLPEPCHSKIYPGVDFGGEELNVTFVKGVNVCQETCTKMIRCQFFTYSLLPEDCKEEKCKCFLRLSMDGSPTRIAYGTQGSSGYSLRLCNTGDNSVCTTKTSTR

Row | SMILES | IC50
1 | Cc1nn(C(C)c2cnc(N3C[C@H]4C[C@H]4C3=O)nc2)cc1C(=O)N[C@H]1C[C@@H](c2cc(Cl)ccc2C#N)C1 (single isomer, unassigned) [Example 16, N-((cis)-3-(5-chloro-2-cyanophenyl)cyclobutyl)-3-methyl-1-((S or R)-1-(2-((1R,5S)-2-oxo-3-azabicyclo[3.1.0]hexan-3-yl)pyrimidin-5-yl)ethyl)-1H-pyrazole-4-carboxamide] | 6.7 nM
2 | Cc1cc(N2C[C@H]3C[C@H]3C2=O)ncc1C(C)n1cc(C(=O)NC2CC(c3cc(Cl)ccc3C#N)C2)c([C@H](C)O)n1 (stereo in doubt) [Example 172, N-((cis)-3-(5-chloro-2-cyanophenyl)cyclobutyl)-3-((S)-1-hydroxyethyl)-1-((S)-1-(4-methyl-6-((1R,5S)-2-oxo-3-azabicyclo[3.1.0]hexan-3-yl)pyridin-3-yl)ethyl)-1H-pyrazole-4-carboxamide] | 11.1 nM
3 | CC(c1ccc(N2C[C@H]3C[C@H]3C2=O)nc1)n1cc(C(=O)N[C@H]2C[C@@H](c3cc(Cl)ccc3C#N)C2)nn1 (single isomer, unassigned) [Example 57, N-((cis)-3-(5-chloro-2-cyanophenyl)cyclobutyl)-1-((R or S)-1-(6-((1R,5S)-2-oxo-3-azabicyclo[3.1.0]hexan-3-yl)pyridin-3-yl)ethyl)-1H-1,2,3-triazole-4-carboxamide] | 7.7 nM
4 | COc1cc(C(C)n2cc(C(=O)N[C@H]3C[C@@H](c4cc(Cl)ccc4C#N)C3)cn2)cnc1N1C[C@H]2C[C@H]2C1=O (single isomer, unassigned) [Example 13, N-((cis)-3-(5-chloro-2-cyanophenyl)cyclobutyl)-1-((R or S)-1-(5-methoxy-6-((1R,5S)-2-oxo-3-azabicyclo[3.1.0]hexan-3-yl)pyridin-3-yl)ethyl)-1H-pyrazole-4-carboxamide] | 1 nM

More lines, now with the values ahead:

Row | IC50 | SMILES
5 | 0.6 nM | [2H][C@]1(c2cc(Cl)ccc2C#N)C[C@@H](NC(=O)c2cn([C@@H](C)c3cnc(N4C[C@H]5C[C@H]5C4=O)cc3C)nn2)C1 [Example 147, N-((cis)-3-(5-chloro-2-cyanophenyl)cyclobutyl-3-d)-1-((S)-1-(4-methyl-6-((1R,5S)-2-oxo-3-azabicyclo[3.1.0]hexan-3-yl)pyridin-3-yl)ethyl)-1H-1,2,3-triazole-4-carboxamide]
6 | 1.1 nM | Cc1nc(C(C)n2cc(C(=O)N[C@H]3C[C@@](C)(c4cc(Cl)ccc4C#N)C3)nn2)cnc1N1C[C@H]2C[C@H]2C1=O (single isomer, unassigned) [Example 110, N-((cis)-3-(5-chloro-2-cyanophenyl)-3-methylcyclobutyl)-1-((S or R)-1-(6-methyl-5-((1R,5S)-2-oxo-3-azabicyclo[3.1.0]hexan-3-yl)pyrazin-2-yl)ethyl)-1H-1,2,3-triazole-4-carboxamide]
7 | 2.1 nM | Cc1cc(N2C[C@H]3C[C@H]3C2=O)nnc1C(C)n1cc(C(=O)N[C@H]2C[C@@H](c3cc(Cl)ccc3C#N)C2)cn1 (single isomer, unassigned) [Example 47, N-((cis)-3-(5-chloro-2-cyanophenyl)cyclobutyl)-1-((R or S)-1-(4-methyl-6-((1R,5S)-2-oxo-3-azabicyclo[3.1.0]hexan-3-yl)pyridazin-3-yl)ethyl)-1H-pyrazole-4-carboxamide]
8 | 279 nM | Cc1c(C(C)n2cc(C(=O)NC3CC(c4cccc(Cl)c4)C3O)nn2)nnc(N2C[C@H]3C[C@H]3C2=O)c1C (single isomer, unassigned) [Example 132, N-((1S,2S,3S or 1R,2R,3R))-3-(3-chlorophenyl)-2-hydroxycyclobutyl)-1-((S or R)-1-(4,5-dimethyl-6-((1R,5S)-2-oxo-3-azabicyclo[3.1.0]hexan-3-yl)pyridazin-3-yl)ethyl)-1H-1,2,3-triazole-4-carboxamide]

Source: US12528786B2, “Plasma kallikrein inhibitors” (Merck Sharp & Dohme LLC, priority 2020, dated 2026)
